Reference: publication PMC8322070, “A novel orally active HDAC6 inhibitor T-518 shows a therapeutic potential for Alzheimer’s disease and tauopathy in mice” (Scientific Reports, 2021)

Columns and labels:
Type in all cases: biochemical
human HDAC1 = target: T1, human HDAC1 (Homo sapiens, UniProt Q13547); assay: HDAC enzyme assay (HDAC-Glo I/II), HDAC1; conditions: concentrations up to 10 μM
T1 construct: purchased SignalChem Pharmaceutical Inc
Method: (§1) Recombinant HDAC6, HDAC7, HDAC1 were obtained from SignalChem Pharmaceutical Inc. (Richmond, BC, Canada), and recombinant human HDAC4 was prepared at Takeda pharmaceutical company. One μL of T-518 diluted with DMSO was added to 75 μL of assay buffer (24 mM Tris–HCl (pH 7.5), 135 mM NaCl, 0.35 mM KCl, 1 mM MgCl2, 0.01% Tween 20, 0.6 mM GSH) in 384 well plates. Two μL of diluted compounds were added to 384 well plates and 2 μL of recombinant HDAC enzymes was added and then centrifuged at 1000 rpm for 10 s. The final concentrations of each HDAC enzyme were as follows, human HDAC1, 170 pM; human HDAC6, […]; human HDAC4, 68 pM; human HDAC7, 13 pM. After incubation for 60 min at room temperature, 4 μL of HDAC-Glo reagent [HDAC-Glo I/II (Promega) for HDAC6 and HDAC1, HDAC-Glo class IIa (Promega) for HDAC4 and HDAC7] was added to start the reaction. After incubation for 20 min at room temperature, the luminescence was measured by Envision plate reader (PerkinElmer, Waltham, MA, USA). For experiments under the condition of 0 min preincubation, 4 μL of HDAC-Glo reagent was added at first to the 384 well plates including diluted compounds. […] After centrifugation at 1000 rpm for 10 s. and then incubation for 20 min at room temperature, the luminescence was measured by Envision. […] The inhibitory activity of T-518 was expressed as the value of IC50. […]

human HDAC6 = target: T2, human HDAC6 (Homo sapiens, UniProt Q9UBN7); assay: HDAC enzyme assay (HDAC-Glo I/II), HDAC6
T2 construct: purchased SignalChem Pharmaceutical Inc
T2 sequence (Q9UBN7 1-1215): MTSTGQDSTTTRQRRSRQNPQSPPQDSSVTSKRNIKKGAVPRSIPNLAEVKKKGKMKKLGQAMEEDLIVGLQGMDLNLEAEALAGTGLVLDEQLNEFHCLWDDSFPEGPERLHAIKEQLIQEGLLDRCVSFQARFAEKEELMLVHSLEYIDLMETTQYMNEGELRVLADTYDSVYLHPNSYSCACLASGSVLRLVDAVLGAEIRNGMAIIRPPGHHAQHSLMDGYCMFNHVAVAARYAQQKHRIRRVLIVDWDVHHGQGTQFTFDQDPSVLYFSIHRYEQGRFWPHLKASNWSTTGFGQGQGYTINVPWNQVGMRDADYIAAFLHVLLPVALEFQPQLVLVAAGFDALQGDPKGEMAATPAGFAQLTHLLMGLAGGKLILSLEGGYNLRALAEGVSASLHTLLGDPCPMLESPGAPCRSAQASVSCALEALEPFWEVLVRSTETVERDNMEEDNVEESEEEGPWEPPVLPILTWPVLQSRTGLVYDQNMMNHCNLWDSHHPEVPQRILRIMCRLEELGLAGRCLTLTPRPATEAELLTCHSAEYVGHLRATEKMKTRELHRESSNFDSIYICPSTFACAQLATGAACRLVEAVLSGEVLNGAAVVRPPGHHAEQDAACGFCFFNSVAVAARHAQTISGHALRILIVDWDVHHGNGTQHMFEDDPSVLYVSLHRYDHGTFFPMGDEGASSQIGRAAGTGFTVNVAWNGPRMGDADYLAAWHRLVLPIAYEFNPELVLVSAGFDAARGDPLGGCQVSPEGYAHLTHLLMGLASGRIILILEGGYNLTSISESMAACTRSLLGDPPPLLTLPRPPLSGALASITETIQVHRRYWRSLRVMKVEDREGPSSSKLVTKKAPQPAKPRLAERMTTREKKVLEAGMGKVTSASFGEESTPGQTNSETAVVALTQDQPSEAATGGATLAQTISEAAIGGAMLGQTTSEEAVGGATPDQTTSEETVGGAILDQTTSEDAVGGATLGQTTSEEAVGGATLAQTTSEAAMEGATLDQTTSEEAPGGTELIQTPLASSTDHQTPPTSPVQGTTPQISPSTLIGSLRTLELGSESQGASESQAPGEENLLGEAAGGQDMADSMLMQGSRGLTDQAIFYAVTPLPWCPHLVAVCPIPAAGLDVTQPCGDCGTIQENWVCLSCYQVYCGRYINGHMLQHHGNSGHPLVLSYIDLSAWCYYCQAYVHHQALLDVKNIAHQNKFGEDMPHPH
Method: as §1

human HDAC7 = target: T3, human HDAC7 (Homo sapiens, UniProt Q8WUI4); assay: HDAC enzyme assay (HDAC-Glo class IIa), HDAC7; conditions: concentrations up to 10 μM
T3 construct: purchased SignalChem Pharmaceutical Inc
T3 sequence (Q8WUI4 1-952): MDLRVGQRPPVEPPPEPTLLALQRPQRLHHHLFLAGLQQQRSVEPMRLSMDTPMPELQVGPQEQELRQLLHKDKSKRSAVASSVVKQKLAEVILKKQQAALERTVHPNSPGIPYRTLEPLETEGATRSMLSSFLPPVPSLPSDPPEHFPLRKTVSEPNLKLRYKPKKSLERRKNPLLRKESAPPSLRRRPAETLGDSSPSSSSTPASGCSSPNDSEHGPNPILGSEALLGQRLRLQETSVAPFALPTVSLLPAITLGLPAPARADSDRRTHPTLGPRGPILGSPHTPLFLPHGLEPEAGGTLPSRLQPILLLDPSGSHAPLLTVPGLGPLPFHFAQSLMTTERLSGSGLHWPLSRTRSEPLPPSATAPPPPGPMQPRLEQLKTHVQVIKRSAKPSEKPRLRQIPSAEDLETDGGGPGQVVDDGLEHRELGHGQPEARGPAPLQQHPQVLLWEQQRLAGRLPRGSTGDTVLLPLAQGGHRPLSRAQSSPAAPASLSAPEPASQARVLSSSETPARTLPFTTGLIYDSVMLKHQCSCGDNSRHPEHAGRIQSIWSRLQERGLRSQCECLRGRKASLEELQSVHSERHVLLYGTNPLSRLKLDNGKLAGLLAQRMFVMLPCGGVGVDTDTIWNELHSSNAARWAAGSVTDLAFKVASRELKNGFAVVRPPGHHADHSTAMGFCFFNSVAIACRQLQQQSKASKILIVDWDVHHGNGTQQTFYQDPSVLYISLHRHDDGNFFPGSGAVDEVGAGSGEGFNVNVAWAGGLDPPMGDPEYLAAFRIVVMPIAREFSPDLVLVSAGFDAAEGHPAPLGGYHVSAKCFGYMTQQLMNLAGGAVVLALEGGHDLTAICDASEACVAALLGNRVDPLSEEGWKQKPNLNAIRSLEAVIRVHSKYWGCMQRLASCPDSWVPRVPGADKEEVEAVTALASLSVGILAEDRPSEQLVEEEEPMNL
Method: as §1

T1 sequence (Q13547 whole entry): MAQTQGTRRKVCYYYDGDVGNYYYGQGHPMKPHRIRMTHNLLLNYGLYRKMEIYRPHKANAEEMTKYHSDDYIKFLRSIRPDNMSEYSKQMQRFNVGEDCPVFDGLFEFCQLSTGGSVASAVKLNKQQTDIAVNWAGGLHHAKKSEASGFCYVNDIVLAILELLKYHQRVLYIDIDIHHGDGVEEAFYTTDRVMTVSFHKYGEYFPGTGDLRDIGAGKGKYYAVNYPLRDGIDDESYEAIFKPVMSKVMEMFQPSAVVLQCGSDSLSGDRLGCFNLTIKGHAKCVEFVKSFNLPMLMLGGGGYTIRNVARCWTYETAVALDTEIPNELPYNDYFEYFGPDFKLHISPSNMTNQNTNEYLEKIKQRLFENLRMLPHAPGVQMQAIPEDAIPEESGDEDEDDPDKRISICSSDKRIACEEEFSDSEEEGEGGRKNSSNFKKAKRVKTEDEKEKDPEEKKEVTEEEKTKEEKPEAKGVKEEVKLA

O=C1c2cc(-c3nnc(C(F)F)o3)cnc2CN1[C@@H]1CCCC[C@H]1NC(=O)C(F)(F)C(F)(F)F [T-518, N-[(1R,2R)-2-{3-[5-(difluoromethyl)-1,3,4-oxadiazol-2-yl]-5-oxo-5H,6H,7H-pyrrolo[3,4-b]pyridin-6-yl}cyclohexyl]-2,2,3,3,3-pentafluoropropanamide]
inhibition of human HDAC1 enzyme activity (human HDAC1): did not obviously inhibit | IC50 (human HDAC6; after 60 min of pre-incubation): 4.6 nM | IC50 (human HDAC6; without pre-incubation): 36 nM | inhibition of human HDAC7 enzyme activity (human HDAC7): did not obviously inhibit
